Measured values taken from US6881719B2, “β-turn peptidomimetic cyclic compounds” (McGill University, priority 2000, dated 2005).

Key:
Format in all cases: cell-based
[1] = system: embryonic rat DRG primary neuronal cultures; assay: Cell survival (MTT), primary DRG cultures; conditions: 8 days;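 on % Protection: 100% equals survival with optimal NGF at 1 nM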
Protocol: Fetal rat DRG primary cultures were established from Sprague Dawley day 17 rat embryos. All ganglia were dissected and dissociated first enzymatically with trypsin and then mechanically. Dissociated cells were cultured (10^5 cells/well) in 96 well plates pre-coated with collagen, and grown for a total of 8 days in Neuro Basal Medium containing N2 supplement (GIBCO, Toronto), antibiotics, and L-glutamine. These DRG cultures are ˜85% TrkA-expressing and are heavily dependent on TrkA signals for survival.
Primary DRG cultures: After a total of 8 days of culture with the indicated test or control ligands, cell survival were studied using the 3(4,5-Dimethylthiazolyl-2)-2,5-diphenyl tetrazolium bromide colorimetric (MTT) assay, and by microscopic observation.
Cell lines: 5,000 cells/well in protein-free media (PFHM-II, GIBCO, Toronto) containing 0.2% bovine serum albumin (BSA) (Crystalline fraction V, Sigma, St. Louis, Mo.) were seeded in 96 well plates (Falcon, Mississauga, Ontario). The cultures were untreated, or treated with the indicated test or control ligands. Cell viability was quantitated using the MTT assay after 56-72 hours of culture. […] The OD of untreated cells were subtracted. The higher optical density of untreated primary cultures is likely due to cellular heterogeneity and to endogenous production of limiting amounts of growth factors.

[2] = target: T1, TrkA•TrkA homodimers (4-3.6 cells) (Homo sapiens, UniProt P04629); assay: Detection of putative TrkA•TrkA homodimers by cross-linking and western blot
T1 construct: expressed in transfected cells
T1 sequence (P04629 33-796): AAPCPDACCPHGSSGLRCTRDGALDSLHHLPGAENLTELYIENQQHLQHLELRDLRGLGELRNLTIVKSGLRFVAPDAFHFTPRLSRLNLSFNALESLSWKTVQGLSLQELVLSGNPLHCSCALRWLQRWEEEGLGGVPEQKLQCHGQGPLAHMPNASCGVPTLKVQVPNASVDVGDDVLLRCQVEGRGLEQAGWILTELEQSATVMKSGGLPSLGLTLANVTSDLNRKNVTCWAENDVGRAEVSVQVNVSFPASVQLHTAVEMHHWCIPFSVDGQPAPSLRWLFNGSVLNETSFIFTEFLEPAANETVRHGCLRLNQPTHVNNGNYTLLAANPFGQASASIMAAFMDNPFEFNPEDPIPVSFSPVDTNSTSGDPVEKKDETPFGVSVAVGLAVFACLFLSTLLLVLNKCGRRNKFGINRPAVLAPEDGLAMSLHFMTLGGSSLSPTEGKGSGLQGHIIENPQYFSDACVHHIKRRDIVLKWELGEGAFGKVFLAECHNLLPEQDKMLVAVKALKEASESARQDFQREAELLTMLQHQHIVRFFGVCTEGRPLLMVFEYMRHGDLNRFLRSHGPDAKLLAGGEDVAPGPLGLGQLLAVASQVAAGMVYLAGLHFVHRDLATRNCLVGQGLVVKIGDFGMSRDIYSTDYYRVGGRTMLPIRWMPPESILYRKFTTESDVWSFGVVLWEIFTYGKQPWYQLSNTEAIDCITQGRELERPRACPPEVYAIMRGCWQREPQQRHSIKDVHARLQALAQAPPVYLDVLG
Protocol: In FIG. 2, 4-3.6 cells were exposed to TrkA ligands as per Table 5 (lanes 1-4) or no ligand (lanes 5 and 6), and chemically cross-linked (lanes 1-5) or not cross-linked (lane 6). Cell lysates were western blotted with anti-TrkA 203 antisera.
Live 4-3.6 cells suspended in PBS were treated with the indicated ligand(s) for 40 min at 4° C. to allow binding. Cells were then washed in PBS, cross-linked with the membrane impermeable cross-linker disuccinimidyl suberate (DSS, Pierce; 1 mM DSS, 15 minutes at 15° C.). Unreacted DSS was quenched with 5 mM ammonium acetate. Then cells were either lysed directly in SDS sample buffer (whole cell lysate), or lysed in non-ionic detergent NP-40 and immunoprecipitated with anti-Trk or anti-p75 antibodies as described (LeSauteur et al., 1996). […] For western blot analysis, equal amounts of protein or cell equivalents for each sample were resolved in a 5-10% SDS-PAGE gradient, transferred to nitrocellulose membranes (Xymotech Biosystems, Montréal, Qc), and blotted with anti-Trk polyclonal antibody 203 that recognizes the intracellular domain of Trk. Blots were visualized using the enhanced chemiluminescence (ECL) system (New England Nuclear, Boston, Mass.).

TrkA = TrkA (Homo sapiens, UniProt P04629); assay: Inhibition of agonistic activity of mAb 5C3
Sequence of TrkA (P04629 33-796): as above

intensity of the Mr 300 kDa band (TrkA dimers), standardized to 1 nM NGF (100%) ([2]; 10 pM NGF + 10 μM D3): 77±7%
intensity of the Mr 300 kDa band (TrkA dimers), standardized to 1 nM NGF (100%) ([2]; 10 μM D3 alone): 21±4%
Compound: NCCCC[C@@H]1NC(=O)[C@H](CCC(=O)O)NC(=O)c2cc([N+](=O)[O-])ccc2OCCC(C(=O)NCC(=O)O)NC1=O (some centres unmarked) [D3, EKHse-G-OH]
% Protection ([1]; compound 10 μM + NGF 20 pM): 48 ± 3%
Optical Density ([1]; compound 10 μM + NGF 20 pM): 471 ± 28
% Protection ([1]; compound 10 μM + NGF 500 pM): 84 ± 3%
Optical Density ([1]; compound 10 μM + NGF 500 pM): 603 ± 26
% Protection ([1]; compound 10 μM + NGF 1 nM): 120 ± 7%
Optical Density ([1]; compound 10 μM + NGF 1 nM): 977 ± 38
% Protection ([1]; compound 10 μM alone): 38 ± 2%
Optical Density ([1]; compound 10 μM alone): 405 ± 22
inhibition of optimal agonistic activity of mAb 5C3 (TrkA): inhibited by D3 in a dose-dependent manner
